Measurements taken from ChEMBL document CHEMBL1201862, “PubChem BioAssay data set” (2004).
Counter-ions that a name gives are not always drawn.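 The compound was tested at five concentrations on cells cultured in 96-well plates, with a 48-hour exposure period. Here, GI50 denotes the concentration required for 50% inhibition of growth.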 Active and inactive are the calls of the source. No stated cut-off is given here; in the data, active = GI50 up to about 1.1 µM and inactive = higher.

Assays:
Test in all cases: NCI tumour cell line growth inhibition, 48 h
LOX IMVI = test system: LOX IMVI
SR = test system: SR
MDA-MB-435 = test system: MDA-MB-435
MOLT-4 = test system: MOLT-4
CAKI-1 = test system: CAKI-1
PC-3 = test system: PC-3
T47D = test system: T47D
SK-MEL-2 = test system: SK-MEL-2
NCI-H522 = test system: NCI-H522
A549 = test system: A549
UO-31 = test system: UO-31
SK-MEL-5 = test system: SK-MEL-5
SK-MEL-28 = test system: SK-MEL-28
MCF7 = test system: MCF7
NCI-H460 = test system: NCI-H460
OVCAR-8 = test system: OVCAR-8
HOP-92 = test system: HOP-92
ACHN = test system: ACHN
A498 = test system: A498
HCC 2998 = test system: HCC 2998

Measured: GI50

N=C(N)NS(=O)(=O)c1ccc(NC(=O)c2ccc3nc4ccccc4c(Nc4ccc(S(=O)(=O)N=C(N)N)cc4)c3c2)cc1
inactive: LOX IMVI 61.8 µM | SR > 100 µM | MDA-MB-435 > 100 µM | MOLT-4 > 100 µM | CAKI-1 > 100 µM | PC-3 > 100 µM | T47D > 100 µM | SK-MEL-2 > 100 µM | NCI-H522 > 100 µM | A549 > 100 µM | UO-31 > 100 µM | SK-MEL-5 > 100 µM | SK-MEL-28 > 100 µM | MCF7 > 100 µM | NCI-H460 > 100 µM | OVCAR-8 > 100 µM | HOP-92 > 100 µM | ACHN > 100 µM | A498 > 100 µM | HCC 2998 > 100 µM

CC(C)(C)c1cc(C(C)(C)C)c2c(c1O)OC(=O)CS2
inactive: LOX IMVI 8.47 µM | SR 4.56 µM | MDA-MB-435 3.85 µM | MOLT-4 4.61 µM | CAKI-1 5.9 µM | PC-3 7.24 µM | T47D 4.56 µM | SK-MEL-2 6.93 µM | NCI-H522 4.06 µM | A549 3.59 µM | UO-31 5.73 µM | SK-MEL-5 2.88 µM | SK-MEL-28 13.4 µM | MCF7 3.82 µM | NCI-H460 2.75 µM | OVCAR-8 5.98 µM | HOP-92 9.59 µM | ACHN 3.96 µM | A498 13 µM | HCC 2998 3.03 µM

CNN1C(=O)c2c(N)c(C#N)c(-c3ccccc3)c(-c3ccccc3)c2C1=O
inactive: LOX IMVI > 100 µM | SR 76.7 µM | MDA-MB-435 > 100 µM | MOLT-4 39.5 µM | CAKI-1 > 100 µM | PC-3 55.6 µM | T47D 17.9 µM | SK-MEL-2 > 100 µM | NCI-H522 84.1 µM | A549 > 100 µM | UO-31 48.6 µM | SK-MEL-5 62.4 µM | SK-MEL-28 > 100 µM | MCF7 65.8 µM | NCI-H460 71.6 µM | OVCAR-8 90.6 µM | HOP-92 > 100 µM | ACHN > 100 µM | A498 > 100 µM | HCC 2998 > 100 µM

Cc1c(-c2cnccn2)ssc1=S [OLTIPRAZ]
inactive: LOX IMVI 63 µM | SR 68.9 µM | MDA-MB-435 > 100 µM | MOLT-4 > 96.4 µM | CAKI-1 > 100 µM | PC-3 > 100 µM | T47D 67.6 µM | SK-MEL-2 53.3 µM | NCI-H522 34.8 µM | A549 98.9 µM | UO-31 40 µM | SK-MEL-5 36.3 µM | SK-MEL-28 > 100 µM | MCF7 > 100 µM | NCI-H460 > 100 µM | OVCAR-8 72.4 µM | HOP-92 26.8 µM | ACHN 44 µM | A498 34.8 µM | HCC 2998 > 100 µM

NCCCCN [PUTRESCINE HYDROCHLORIDE]
inactive: LOX IMVI > 100 µM | SR > 100 µM | MDA-MB-435 8.36 µM | MOLT-4 > 100 µM | CAKI-1 15 µM | PC-3 > 100 µM | T47D > 100 µM | SK-MEL-2 > 100 µM | NCI-H522 > 100 µM | A549 > 100 µM | UO-31 > 100 µM | SK-MEL-5 > 100 µM | SK-MEL-28 > 100 µM | MCF7 > 100 µM | NCI-H460 > 100 µM | OVCAR-8 > 100 µM | HOP-92 > 100 µM | ACHN > 100 µM | A498 > 100 µM | HCC 2998 > 100 µM

Cc1cn([C@H]2C[C@H](N=[N+]=[N-])[C@@H](CO)O2)c(=O)[nH]c1=O [ZIDOVUDINE]
inactive: LOX IMVI > 83 µM | SR 177 µM | MDA-MB-435 565 µM | MOLT-4 > 100 µM | CAKI-1 > 97.1 µM | PC-3 885 µM | T47D > 100 µM | SK-MEL-2 > 100 µM | NCI-H522 > 100 µM | A549 > 97.3 µM | UO-31 > 100 µM | SK-MEL-5 118 µM | SK-MEL-28 > 100 µM | MCF7 66.4 µM | NCI-H460 42.7 µM | OVCAR-8 180 µM | HOP-92 > 100 µM | ACHN > 100 µM | A498 66.2 µM | HCC 2998 > 100 µM
